Laboratory results: the supplement of paper PMC10307832

Assays:
Test in all cases: relative viability (nuclei count vs DMSO), 5 days (fraction); higher = more cells survive
[1] = compound: CN(C)C[C@@H]1CCn2cc(c3ccccc32)C2=C(C(=O)NC2=O)c2cn(c3ccccc23)CCO1 [Ruboxistaurin] + N=C(N)NC(=N)NCCc1ccccc1 [Phenformin] (partner 250 µM)
Summary of the method: (§1)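 Five library-drug doses in √10 steps were combined with a fixed anchor-drug dose, or a single drug was given alone, by pin tool to lung cancer cell lines in 1536-well plates the day after seeding. Nuclei were stained and counted after 5 days. Relative viability is the nuclei count in treated wells over that in vehicle wells, taken as the median of duplicate plates.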

[2] = compound: CN(C)C[C@@H]1CCn2cc(c3ccccc32)C2=C(C(=O)NC2=O)c2cn(c3ccccc23)CCO1 [Ruboxistaurin] + Cc1cc(Nc2cc(N3CCN(C)CC3)nc(Sc3ccc(NC(=O)C4CC4)cc3)n2)n[nH]1 [Tozasertib] (partner 0.1 µM)
Summary of the method: as §1

[3] = compound: CN(C)C[C@@H]1CCn2cc(c3ccccc32)C2=C(C(=O)NC2=O)c2cn(c3ccccc23)CCO1 [Ruboxistaurin] + C[C@]1(O)C[C@@H](c2nc(-c3ccc4ccc(-c5ccccc5)nc4c3)c3c(N)nccn32)C1 [Linsitinib] (partner 1 µM)
Summary of the method: as §1

[4] = compound: CN(C)C[C@@H]1CCn2cc(c3ccccc32)C2=C(C(=O)NC2=O)c2cn(c3ccccc23)CCO1 [Ruboxistaurin] + CC(C)C[C@H](NC(=O)[C@H](Cc1ccccc1)NC(=O)c1cnccn1)B(O)O [Bortezomib] (partner 0.002 µM)
Summary of the method: as §1

[5] = compound: CN(C)C[C@@H]1CCn2cc(c3ccccc32)C2=C(C(=O)NC2=O)c2cn(c3ccccc23)CCO1 [Ruboxistaurin] + Nc1nc2[nH]cc(CCc3ccc(C(=O)N[C@@H](CCC(=O)O)C(=O)O)cc3)c2c(=O)[nH]1 [Pemetrexed] (partner 0.2 µM)
Summary of the method: as §1

| Cell Line | relative viability ([1]; first compound 0.08 µM) | relative viability ([1]; first compound 0.8 µM) | relative viability ([1]; first compound 2.53 µM) | relative viability ([1]; first compound 8 µM) | relative viability ([2]; first compound 0.08 µM) | relative viability ([2]; first compound 0.8 µM) | relative viability ([2]; first compound 2.53 µM) | relative viability ([2]; first compound 8 µM) | relative viability ([3]; first compound 0.08 µM) | relative viability ([3]; first compound 0.8 µM) | relative viability ([3]; first compound 2.53 µM) | relative viability ([3]; first compound 8 µM) | relative viability ([4]; first compound 0.08 µM) | relative viability ([4]; first compound 0.8 µM) | relative viability ([4]; first compound 2.53 µM) | relative viability ([4]; first compound 8 µM) | relative viability ([5]; first compound 0.08 µM) | relative viability ([5]; first compound 0.8 µM) | relative viability ([5]; first compound 2.53 µM) | relative viability ([5]; first compound 8 µM) |
| --- | --- | --- | --- | --- | --- | --- | --- | --- | --- | --- | --- | --- | --- | --- | --- | --- | --- | --- | --- | --- |
| SK-LU-1 | 0.61 | 0.495 | 0.628 | 0.526 | 0.414 | 0.33 | 0.323 | 0.265 | 1.14 | 0.975 | 0.991 | 0.854 | 1.37 | 1.03 | 1.22 | 1.07 | 0.944 | 0.913 | 1.12 | 0.954 |
| NCI-H647 | 0.656 | 0.483 | 0.599 | 0.409 | 0.199 | 0.272 | 0.369 | 0.172 | 1.2 | 0.923 | 1.24 | 1.02 | 1.21 | 0.817 | 0.869 | 1.3 | 0.173 | 0.222 | 0.196 | 0.161 |
| SW 1573 | 0.408 | 0.141 | 0.445 | 0.282 | 0.256 | 0.19 | 0.168 | 0.124 | 0.879 | 0.839 | 0.799 | 0.772 | 0.892 | 0.973 | 0.983 | 1.05 | 0.923 | 0.803 | 0.795 | 0.704 |
| HCC-15 | 0.513 | 0.46 | 0.486 | 0.504 | 0.461 | 0.255 | 0.297 | 0.188 | 0.841 | 0.834 | 0.852 | 0.776 | 1.09 | 1.01 | 1.14 | 1.2 | 0.224 | 0.207 | 0.221 | 0.2 |
| NCI-H2126 | 0.573 | 0.52 | 0.541 | 0.52 | 0.975 | 0.803 | 0.923 | 0.696 | 0.744 | 0.641 | 0.749 | 0.665 | 1.11 | 1.05 | 1.18 | 1.16 | 0.699 | 0.65 | 0.674 | 0.623 |
| NCI-H2085 | 0.789 | 0.655 | 0.745 | 0.674 | 0.846 | 0.74 | 0.773 | 0.797 | 1.01 | 0.806 | 0.861 | 0.809 | 1.07 | 0.987 | 1.09 | 1.17 | 1.07 | 0.868 | 0.944 | 0.904 |
| BEN | 0.26 | 0.292 | 0.248 | 0.245 | 0.492 | 0.45 | 0.498 | 0.483 | 1.04 | 0.883 | 0.9 | 0.721 | 0.903 | 0.78 | 0.702 | 0.677 | 0.801 | 0.695 | 0.716 | 0.528 |
| NCI-H650 | 0.51 | 0.452 | 0.488 | 0.464 | 0.81 | 0.685 | 0.82 | 0.863 | 0.94 | 0.799 | 1.06 | 0.801 | 0.816 | 0.698 | 0.927 | 0.915 | 0.995 | 0.948 | 0.981 | 0.817 |
| LCLC-103H | 0.336 | 0.285 | 0.336 | 0.321 | 0.52 | 0.326 | 0.519 | 0.472 | 1.13 | 0.834 | 0.883 | 1.15 | 1.19 | 1.12 | 0.968 | 1.01 | 0.47 | 0.479 | 0.434 | 0.608 |
| PC-14 | 0.675 | 0.568 | 0.536 | 0.556 | 0.596 | 0.518 | 0.546 | 0.532 | 1.02 | 0.914 | 0.936 | 0.914 | 1.11 | 0.743 | 0.899 | 1.1 | 0.135 | 0.136 | 0.136 | 0.115 |
| NCI-H2228 | 0.345 | 0.256 | 0.419 | 0.269 | 0.317 | 0.202 | 0.237 | 0.187 | 0.847 | 0.481 | 0.681 | 0.751 | 1.33 | 0.708 | 1.08 | 0.941 | 0.387 | 0.335 | 0.337 | 0.322 |
| COR-L23 | 0.408 | 0.41 | 0.519 | 0.493 | 0.221 | 0.167 | 0.202 | 0.153 | 0.928 | 0.815 | 1.03 | 0.851 | 1.1 | 0.797 | 0.968 | 1.35 | 0.193 | 0.182 | 0.204 | 0.192 |
| NCI-H1915 | 0.35 | 0.349 | 0.363 | 0.376 | 0.456 | 0.397 | 0.396 | 0.375 | 1.12 | 1.04 | 1.03 | 1.07 | 0.985 | 0.928 | 0.985 | 0.896 | 0.508 | 0.439 | 0.443 | 0.426 |
